In this experiment the target is T1, human GluN1/GluN2B NMDA receptors (Homo sapiens, UniProt Q13224).
T1 construct: expressed in transfected cells
Briefly: Calcium flux (FLIPR) assay on cloned human NR1/GluN2B ion channels expressed in mammalian cells (standard and HTS variants). Type of experiment: cell-based. Conditions: cells expressing human GluN1/GluN2B, glutamate and glycine co-agonists. An outline of the steps: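 Tet-On-induced stable cell line loaded with Calcium 5 dye; compounds applied 5 min (agonist check), then glutamate at ~EC40 plus 10 μM glycine for 5 min. Buffer pH 7.4 with 0.5 mM MgCl2 in dye loading (standard) or 1.5 mM (HTS). FLIPR fluorescence normalized to control wells; (+)MK-801 as antagonist control.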
A general note: A change in cytosolic calcium serves as a functional read-out for many receptors and channels.

Structures are written as SMILES. pIC50: −log10 of the molar value. Structures can show the parent of a compound that is named as a salt.

T1 sequence (Q13224 27-1484, other chains not shown): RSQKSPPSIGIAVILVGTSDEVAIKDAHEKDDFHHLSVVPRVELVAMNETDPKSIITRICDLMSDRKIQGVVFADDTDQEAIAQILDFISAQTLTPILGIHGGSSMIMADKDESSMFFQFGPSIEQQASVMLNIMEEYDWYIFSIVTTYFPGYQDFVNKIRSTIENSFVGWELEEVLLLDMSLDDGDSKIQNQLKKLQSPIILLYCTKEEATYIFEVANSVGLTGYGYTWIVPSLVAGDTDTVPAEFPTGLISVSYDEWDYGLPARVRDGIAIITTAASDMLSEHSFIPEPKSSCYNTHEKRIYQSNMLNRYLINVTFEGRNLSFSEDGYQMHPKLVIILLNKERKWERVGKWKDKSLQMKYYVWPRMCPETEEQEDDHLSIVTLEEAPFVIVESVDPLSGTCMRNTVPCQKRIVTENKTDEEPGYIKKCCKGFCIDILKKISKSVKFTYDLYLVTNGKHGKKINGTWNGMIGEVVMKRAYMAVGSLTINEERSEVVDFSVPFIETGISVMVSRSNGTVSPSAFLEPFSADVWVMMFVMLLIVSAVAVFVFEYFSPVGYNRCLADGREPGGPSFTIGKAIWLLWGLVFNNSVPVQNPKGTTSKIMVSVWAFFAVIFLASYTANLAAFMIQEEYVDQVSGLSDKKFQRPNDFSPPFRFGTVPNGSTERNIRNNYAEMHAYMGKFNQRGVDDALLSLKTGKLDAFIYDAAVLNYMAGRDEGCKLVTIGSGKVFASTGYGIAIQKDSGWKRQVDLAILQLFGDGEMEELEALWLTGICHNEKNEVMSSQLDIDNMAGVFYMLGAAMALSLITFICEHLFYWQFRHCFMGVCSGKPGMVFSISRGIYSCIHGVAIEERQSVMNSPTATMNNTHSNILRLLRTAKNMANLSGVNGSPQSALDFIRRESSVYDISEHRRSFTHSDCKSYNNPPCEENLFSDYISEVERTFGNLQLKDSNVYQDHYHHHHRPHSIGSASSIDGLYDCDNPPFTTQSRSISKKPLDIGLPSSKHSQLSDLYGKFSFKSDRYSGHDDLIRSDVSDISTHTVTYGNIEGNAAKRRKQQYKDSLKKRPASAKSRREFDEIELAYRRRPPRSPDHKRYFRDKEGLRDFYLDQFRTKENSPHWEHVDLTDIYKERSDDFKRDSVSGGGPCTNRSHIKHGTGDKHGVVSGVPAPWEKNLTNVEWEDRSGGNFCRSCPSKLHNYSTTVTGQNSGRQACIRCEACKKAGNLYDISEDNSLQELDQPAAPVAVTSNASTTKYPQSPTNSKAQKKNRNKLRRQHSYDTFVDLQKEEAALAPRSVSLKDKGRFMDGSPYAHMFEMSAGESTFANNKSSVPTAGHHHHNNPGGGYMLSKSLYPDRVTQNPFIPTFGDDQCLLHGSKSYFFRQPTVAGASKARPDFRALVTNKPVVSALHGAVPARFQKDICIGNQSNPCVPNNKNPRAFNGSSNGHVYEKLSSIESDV

A word on the pIC50: it is −log10 of the IC50, conventionally taken in molar units. Turning to `N#Cc1cncc(Cn2ncc3ncc(-c4ccc(F)c(OC(F)F)c4)cc32)c1` [Example 226, 5-[[6-[3-(Difluoromethoxy)-4-fluoro-phenyl]pyrazolo[4,3-b]pyridin-1-yl]methyl]pyridine-3-carbonitrile], the pIC50 was 7.17.
For `COc1ccc(Cn2ncc3ncc(-c4ccc(F)c(OC(F)F)c4)cc32)cn1` [Example 227, 6-[3-(Difluoromethoxy)-4-fluoro-phenyl]-1-[(6-methoxy-3-pyridyl)methyl]pyrazolo[4,3-b]pyridine] the value was 5.79; for `COc1cccc(Cn2ncc3ncc(-c4ccc(F)c(OC(F)F)c4)cc32)n1` [Example 228, 6-[3-(Difluoromethoxy)-4-fluoro-phenyl]-1-[(6-methoxy-2-pyridyl)methyl]pyrazolo[4,3-b]pyridine], 6.42.
Next, `COc1ncccc1Cn1ncc2ncc(-c3ccc(F)c(OC(F)F)c3)cc21` [Example 229, 6-[3-(Difluoromethoxy)-4-fluoro-phenyl]-1-[(2-methoxy-3-pyridyl)methyl]pyrazolo[4,3-b]pyridine]: 6.15; `COc1cncc(Cn2ncc3ncc(-c4ccc(F)c(OC(F)F)c4)cc32)c1` [Example 230, 6-[3-(Difluoromethoxy)-4-fluoro-phenyl]-1-[(5-methoxy-3-pyridyl)methyl]pyrazolo[4,3-b]pyridine]: 7.32; `Fc1ccc(-c2cnc3cnn(Cc4cncc(Cl)c4)c3c2)cc1OC(F)F` [Example 231, 1-[(5-Chloro-3-pyridyl)methyl]-6-[3-(difluoromethoxy)-4-fluoro-phenyl]pyrazolo[4,3-b]pyridine]: 7.41.
Next, `COc1cncc(Cn2ncc3ncc(-c4ccc(Cl)c(C(F)F)c4)cc32)c1` [Example 232, 6-[4-chloro-3-(Difluoromethyl)phenyl]-1-[(5-methoxy-3-pyridyl)methyl]pyrazolo[4,3-b]pyridine]: 7.40.
As to `Fc1cncc(Cn2ncc3ncc(-c4ccc(F)c(C(F)(F)F)c4)cc32)c1` [Example 233, 1-[(5-Fluoro-3-pyridyl)methyl]-6-[4-fluoro-3-(trifluoromethyl)phenyl]pyrazolo[4,3-b]pyridine], the pIC50 was 7.12.
For `COc1cncc(Cn2ncc3ncc(-c4ccc(F)c(C(F)(F)F)c4)cc32)c1` [Example 234, 6-[4-Fluoro-3-(trifluoromethyl)phenyl]-1-[(5-methoxy-3-pyridyl)methyl]pyrazolo[4,3-b]pyridine] the value was 7.04.
As to `Fc1ccc(Cn2ncc3ncc(-c4ccc(F)c(Br)c4)cc32)cn1` [Example 235, 6-(3-Bromo-4-fluorophenyl)-1-((6-fluoropyridin-3-yl)methyl)-1H-pyrazolo[4,3-b]pyridine], the negative-log IC50 (pIC50) is 6.60.
For `CC(F)(F)c1cc(-c2cnc3cnn(Cc4cncc(C#N)c4)c3c2)ccc1Cl` [Example 236, 5-[[6-[4-Chloro-3-(1,1-difluoroethyl)phenyl]pyrazolo[4,3-b]pyridin-1-yl]methyl]pyridine-3-carbonitrile] the value was 6.31.
For `CC(F)(F)c1cc(-c2cnc3cnn(Cc4cncc(Cl)c4)c3c2)ccc1Cl` [Example 237, 6-[4-Chloro-3-(1,1-difluoroethyl)phenyl]-1-[(5-chloro-3-pyridyl)methyl]pyrazolo[4,3-b]pyridine] the value was 6.70; for `FC(F)Oc1cc(-c2cnc3cnn(Cc4cccnc4)c3c2)ccc1Cl` [Example 238, 6-[4-Chloro-3-(difluoromethoxy)phenyl]-1-(3-pyridylmethyl)pyrazolo[4,3-b]pyridine], 6.93; for `Cc1cncc(Cn2ncc3ncc(-c4ccc(Cl)c(OC(F)F)c4)cc32)c1` [Example 239, 6-[4-Chloro-3-(difluoromethoxy)phenyl]-1-[(5-methyl-3-pyridyl)methyl]pyrazolo[4,3-b]pyridine], 6.92.
Next, `Fc1cncc(Cn2ncc3ncc(-c4ccc(Cl)c(OC(F)F)c4)cc32)c1` [Example 240, 6-[4-Chloro-3-(difluoromethoxy)phenyl]-1-[(5-fluoro-3-pyridyl)methyl]pyrazolo[4,3-b]pyridine]: 6.78.
With `N#Cc1cncc(Cn2ncc3ncc(-c4ccc(Cl)c(OC(F)F)c4)cc32)c1` [Example 241, 5-[[6-[4-Chloro-3-(difluoromethoxy)phenyl]pyrazolo[4,3-b]pyridin-1-yl]methyl]pyridine-3-carbonitrile], the pIC50 was 6.82.
Next, `COc1cncc(Cn2ncc3ncc(-c4ccc(Cl)c(OC(F)F)c4)cc32)c1` [Example 242, 6-[4-Chloro-3-(difluoromethoxy)phenyl]-1-[(5-methoxy-3-pyridyl)methyl]pyrazolo[4,3-b]pyridine]: 6.30.
Next, `FC(F)Oc1cc(-c2cnc3cnn(Cc4cncc(Cl)c4)c3c2)ccc1Cl` [Example 243, 6-[4-Chloro-3-(difluoromethoxy)phenyl]-1-[(5-chloro-3-pyridyl)methyl]pyrazolo[4,3-b]pyridine]: 6.84; `Cc1c(F)ccc(-c2cnc3cnn(Cc4ccccn4)c3c2)c1F` [Example 244, 6-(2,4-Difluoro-3-methyl-phenyl)-1-(2-pyridylmethyl)pyrazolo[4,3-b]pyridine]: 6.51.
In the case of `Cc1c(F)ccc(-c2cnc3cnn(Cc4cccnc4)c3c2)c1F` [Example 245, 6-(2,4-Difluoro-3-methyl-phenyl)-1-(3-pyridylmethyl)pyrazolo[4,3-b]pyridine trifluoroacetate salt], the pIC50 was 7.48.
Consider `Cc1cncc(Cn2ncc3ncc(-c4ccc(F)c(C)c4F)cc32)c1` [Example 246, 6-(2,4-Difluoro-3-methyl-phenyl)-1-[(5-methyl-3-pyridyl)methyl]pyrazolo[4,3-b]pyridine], for which the negative-log IC50 (pIC50) was 7.28.
With `Cc1ccncc1Cn1ncc2ncc(-c3ccc(F)c(C)c3F)cc21` [Example 247, 6-(2,4-Difluoro-3-methyl-phenyl)-1-[(4-methyl-3-pyridyl)methyl]pyrazolo[4,3-b]pyridine trifluoroacetate salt], the pIC50 was 6.89.
In the case of `Cc1c(F)ccc(-c2cnc3cnn(Cc4ccc(F)nc4)c3c2)c1F` [Example 248, 6-(2,4-Difluoro-3-methyl-phenyl)-1-[(6-fluoro-3-pyridyl)methyl]pyrazolo[4,3-b]pyridine], the pIC50 is 7.21.
Next, `Cc1c(F)ccc(-c2cnc3cnn(Cc4cncc(F)c4)c3c2)c1F` [Example 249, 6-(2,4-Difluoro-3-methyl-phenyl)-1-[(5-fluoro-3-pyridyl)methyl]pyrazolo[4,3-b]pyridine trifluoroacetate salt]: 7.40.
For `Fc1cc(-c2cnc3cnn(Cc4ccccn4)c3c2)cc(F)c1F` [Example 250, 1-(2-Pyridylmethyl)-6-(3,4,5-trifluorophenyl)pyrazolo[4,3-b]pyridine] the value was 5.58.
Take `Fc1cncc(Cn2ncc3ncc(-c4cc(F)c(F)c(F)c4)cc32)c1` [Example 251, 1-[(5-Fluoro-3-pyridyl)methyl]-6-(3,4,5-trifluorophenyl)pyrazolo[4,3-b]pyridine]: the negative logarithm of the IC50 (pIC50) is 7.60.
For `COc1cncc(Cn2ncc3ncc(-c4cc(F)c(F)c(F)c4)cc32)c1` [Example 252, 1-[(5-Methoxy-3-pyridyl)methyl]-6-(3,4,5-trifluorophenyl)pyrazolo[4,3-b]pyridine] the value was 6.42; for `Fc1cc(-c2cnc3cnn(Cc4cncc(OC(F)F)c4)c3c2)cc(F)c1F` [Example 253, 1-[[5-(Difluoromethoxy)-3-pyridyl]methyl]-6-(3,4,5-trifluorophenyl)pyrazolo[4,3-b]pyridine], 6.01.
For `FC(F)(F)c1cccc(-c2cnc3cnn(Cc4ccnnc4)c3c2)c1` [Example 254, 1-(Pyridazin-4-ylmethyl)-6-[3-(trifluoromethyl)phenyl]pyrazolo[4,3-b]pyridine] the value was 6.26; for `Cc1cccc(-c2cnc3cnn(Cc4cccnn4)c3c2)c1` [Example 255, 6-(m-Tolyl)-1-(pyridazin-3-ylmethyl)pyrazolo[4,3-b]pyridine], 6.48; for `Fc1cccc(-c2cnc3cnn(Cc4cccnn4)c3c2)c1` [Example 256, 6-(3-Fluorophenyl)-1-(pyridazin-3-ylmethyl)pyrazolo[4,3-b]pyridine trifluoroacetate salt], 5.85.
For `CC(F)(F)c1cccc(-c2cnc3cnn(Cc4cccnn4)c3c2)c1` [Example 257, 6-[3-(1,1-Difluoroethyl)phenyl]-1-(pyridazin-3-ylmethyl)pyrazolo[4,3-b]pyridine] the value was 6.96.
For `FC(F)(F)c1cccc(-c2cnc3cnn(Cc4cccnn4)c3c2)c1` [Example 258, 1-(Pyridazin-3-ylmethyl)-6-[3-(trifluoromethyl)phenyl]pyrazolo[4,3-b]pyridine], the pIC50 is 6.62.
For `Cc1cc(-c2cnc3cnn(Cc4cccnn4)c3c2)ccc1F` [Example 259, 6-(4-Fluoro-3-methyl-phenyl)-1-(pyridazin-3-ylmethyl)pyrazolo[4,3-b]pyridine trifluoroacetate salt] the value was 7.52; for `CC(F)(F)c1cc(-c2cnc3cnn(Cc4cccnn4)c3c2)ccc1F` [Example 260, 6-[3-(1,1-Difluoroethyl)-4-fluoro-phenyl]-1-(pyridazin-3-ylmethyl)pyrazolo[4,3-b]pyridine], 6.79.
As to `Cc1ccc(Cn2ncc3ncc(-c4ccc(F)c(C(F)F)c4)cc32)nn1` [Example 262, 6-[3-(Difluoromethyl)-4-fluoro-phenyl]-1-[(6-methylpyridazin-3-yl)methyl]pyrazolo[4,3-b]pyridine], the pIC50 was 6.56.
Next, `Fc1ccc(-c2cnc3cnn(Cc4cccnn4)c3c2)cc1OC(F)F` [Example 263, 6-[3-(Difluoromethoxy)-4-fluoro-phenyl]-1-(pyridazin-3-ylmethyl)pyrazolo[4,3-b]pyridine]: 6.95.

These data come from patent US11530210B2, “Substituted heteroaromatic pyrazolo-pyridines and their use as GLUN2B receptor modulators” (JANSSEN PHARMACEUTICA NV, priority 2019, dated 2022).
